Measured values reported in patent US20110263454A1, “Methods of Identifying Functional Characteristics of Promoters, Transcription Modifying Proteins and Transcription Modulating Agents” (Salk Institute for Biological Studies, priority 2008, published 2011).

B1: HNF4a: Hepatocyte Nuclear Factor α (NR2A1), cDNA driver (protein, UniProt P41235 1-474, looked up)
Hepatocyte nuclear factor …: MRLSKTLVDMDMADYSAALDPAYTTLEFENVQVLTMGNDTSPSEGTNLNAPNSLGVSALCAICGDRATGKHYGASSCDGCKGFFRRSVRKNHMYSCRFSRQCVVDKDKRNQCRYCRLKKCFRAGMKKEAVQNERDRISTRRSSYEDSSLPSINALLQAEVLSRQITSPVSGINGDIRAKKIASIADVCESMKEQLLVLVEWAKYIPAFCELPLDDQVALLRAHAGEHLLLGATKRSMVFKDVLLLGNDYIVPRHCPELAEMSRVSIRILDELVLPFQELQIDDNEYAYLKAIIFFDPDAKGLSDPGKIKRLRSQVQVSLEDYINDRQYDSRGRFGELLLLLPTLQSITWQMIEQIQFIKLFGMAKIDNLLQEMLLGGSPSDAPHAHHPLHPHLMQEHMGTNVIVANTMPTHLSNGQMCEWPRPRGQAATPETPQPSPPGGSGSEPYKLLPGAVATIVKPLSAIPQPTITKQEVI
B2: LXRb: Liver X Receptor β (NR1H2), cDNA driver (protein, UniProt P55055 1-460, looked up)
Oxysterols receptor LXR-beta: MSSPTTSSLDTPLPGNGPPQPGAPSSSPTVKEEGPEPWPGGPDPDVPGTDEASSACSTDWVIPDPEEEPERKRKKGPAPKMLGHELCRVCGDKASGFHYNVLSCEGCKGFFRRSVVRGGARRYACRGGGTCQMDAFMRRKCQQCRLRKCKEAGMREQCVLSEEQIRKKKIRKQQQESQSQSQSPVGPQGSSSSASGPGASPGGSEAGSQGSGEGEGVQLTAAQELMIQQLVAAQLQCNKRSFSDQPKVTPWPLGADPQSRDARQQRFAHFTELAIISVQEIVDFAKQVPGFLQLGREDQIALLKASTIEIMLLETARRYNHETECITFLKDFTYSKDDFHRAGLQVEFINPIFEFSRAMRRLGLDDAEYALLIAINIFSADRPNVQEPGRVEALQQPYVEALLSYTRIKRPQDQLRFPRMLMKLVSLRTLSSVHSEQVFALRLQDKKLPPLLSEIWDVHE

Experiments:
hPPARg1 promoter = test: NHR-promoter luciferase screen, hPPARg1 promoter; format: cell-based, human; details: for Luc. act., normalized to lacZ / Normalized Luc. act., normalized to control: PPARG1 promoter, hormone receptor with or without its ligand; for Normalized Luc. act., normalized to control: relative to control; for Results of assays of transcription factor (+/- ligand) with hPPARg1: Table 6d, luciferase activity relative to control (control = 1.00)
Experimental: (§1) The use, feasibility, and reproducibility of the functional NHR-promoter screen in a 48-well format have been tested validated. Briefly, there were co-expressed 50 ng of each NHR/NHR homodimer or NHR/RXR heterodimer with 100 ng promoter/luciferase construct and 50 ng of LacZ (as a control for transfection efficiency) in CV-1 cells using Fugene HD (Roche) as a transfection reagent (alternatively or additionally, a CMV-YFP construct can be used as a transfection control). Each of the nuclear hormone receptors that were used in these experiments was cloned into a pcDNA3.1 vector and comprised a C-terminally linked V5H6 tag. Twenty-four hours after transfection, appropriate ligands were added, where applicable, (see Table 5 for various ligands and concentrations and after 48 hrs, samples were assayed for luciferase and LacZ activity. To measure for luciferase activity 15 ul of sample was added to 30 ul of luciferase buffer (20 mM tricine, 1.07 mM MgCarbonate, 2.67 mM MgSulfate, 0.1 mM Naz-EDTA, 5 mM DTT, 5 mM ATP, 0.15 mg/ml CoA, 0.5 mM Luciferin), mixed briefly, and run in a Perkin Elmer Victor 5 luminometer. Thus, the functional NHR-promoter screen was used to observe the transcriptional activity of 29 promoters from various physiological pathways including inflammation, lipid and sugar metabolism, cholesterol transport, xenobiotic metabolism, and circadian rhythm.
(§2) The promoters that facilitate transcription of the indicated gene products that were tested using the protocols described herein are listed in the first row of the table. The nuclear hormone receptors and, where applicable, ligands that were assayed for their transcriptional effects on the promoters are listed in the first column of the table. The data represent the luciferase activity of each sample normalized to both the lacZ activity of that sample and to a control, e.g., no NHR or ligand, as customary in the art. As described previously, these normalizations allow the transcriptional activity of each reporter cell to be compared to other samples.
(§3) Tables 7-40 show the transcriptional effects of the hormone receptors, and, where applicable, ligands (orphan receptors are screened without ligand), on each individual promoter. […] The control data of each table are shown in their last rows.

mPgc1b promoter = test: NHR-promoter luciferase screen, mPgc1b promoter; format: cell-based, mouse; details: for Luc. act., normalized to lacZ / Normalized Luc. act., normalized to control: PGC1b promoter reporter, co-transfected HR, without or with its ligand; for Normalized Luc. act., normalized to control: relative to control; for luciferase activity normalized to lacZ activity and to a control, mPgc1b: mPgc1b promoter-luciferase, CV-1 cells, NHR +/- ligand, control = 1.00
Experimental: (§4) Briefly, there were co-expressed 50 ng of each NHR/NHR homodimer or NHR/RXR heterodimer with 100 ng promoter/luciferase construct and 50 ng of LacZ (as a control for transfection efficiency) in CV-1 cells using Fugene HD (Roche) as a transfection reagent (alternatively or additionally, a CMV-YFP construct can be used as a transfection control). Each of the nuclear hormone receptors that were used in these experiments was cloned into a pcDNA3.1 vector and comprised a C-terminally linked V5H6 tag.
as §2, §3

mPer1 promoter = test: NHR-promoter luciferase screen, mPer1 promoter; format: cell-based, mouse; details: for Luc. act., normalized to lacZ / Normalized Luc. act., normalized to control: Per1 promoter reporter, co-transfected HR, with or without its ligand; for Normalized Luc. act., normalized to control: relative to control; for luciferase activity normalized to lacZ activity and to a control, mPer1: mPer1 promoter-luciferase, CV-1 cells, NHR +/- ligand, control = 1.00
Experimental: as §1, §2, §3

mAdiponectin promoter = test: NHR-promoter luciferase screen, mAdiponectin promoter; format: cell-based, mouse; details: for Luc. act., normalized to lacZ / Normalized Luc. act., normalized to control: Adiponectin, HR component without or with its ligand; for mAdiponectin promoter reporter activity: transcription factor +/- ligand, control = 1.00
Experimental: as §1, §2, §3

RevErba promoter = test: NHR-promoter luciferase screen, RevErba (RVRa) promoter; format: cell-based; parameters: key to mRevErba promoter reporter activity / Normalized Luc. act., normalized to control: luciferase activity normalized to lacZ and to control (no NHR/ligand); details: for Luc. act., normalized to lacZ / Normalized Luc. act., normalized to control / negative reciprocal of normalized Luc. act. (fold repression; Table 33) / normalized Luc. act. on a logarithmic scale (column without head, Table 33): RVRa promoter; for Luc. act., normalized to lacZ / Normalized Luc. act., normalized to control: HR component without or with ligand; for negative reciprocal of normalized Luc. act. (fold repression; Table 33): given only where activity is below control; for normalized Luc. act. on a logarithmic scale (column without head, Table 33): log10 of activity normalized to control; for mRevErba promoter reporter activity: transcription factor +/- ligand, control = 1.00
Experimental: as §4, §2
The control data of each table are shown in their last rows.

| Molecule | Luc. act., normalized to lacZ (hPPARg1 promoter) | Normalized Luc. act., normalized to control (hPPARg1 promoter) | Results of assays of transcription factor (+/- ligand) with hPPARg1 (hPPARg1 promoter) | Luc. act., normalized to lacZ (mPgc1b promoter) | Normalized Luc. act., normalized to control (mPgc1b promoter) | luciferase activity normalized to lacZ activity and to a control, mPgc1b (mPgc1b promoter) | Luc. act., normalized to lacZ (mPer1 promoter) | Normalized Luc. act., normalized to control (mPer1 promoter) | luciferase activity normalized to lacZ activity and to a control, mPer1 (mPer1 promoter) | Luc. act., normalized to lacZ (mAdiponectin promoter) | Normalized Luc. act., normalized to control (mAdiponectin promoter) | mAdiponectin promoter reporter activity (mAdiponectin promoter) | Luc. act., normalized to lacZ (RevErba promoter) | Normalized Luc. act., normalized to control (RevErba promoter) | negative reciprocal of normalized Luc. act. (fold repression; Table 33) (RevErba promoter) | normalized Luc. act. on a logarithmic scale (column without head, Table 33) (RevErba promoter) | mRevErba promoter reporter activity (RevErba promoter) |
| --- | --- | --- | --- | --- | --- | --- | --- | --- | --- | --- | --- | --- | --- | --- | --- | --- | --- |
| NR4a1: NR4a1 (NR4A1; NUR77), nuclear hormone receptor cDNA driver | 129.6 | 1.9 | 1.88 | 17.1 | 1.4 | 1.45 | 503.5 | 3.5 | 3.50 | 85.6 | 1.4 | 1.36 | 24.6 | 0.9 | −1.1361 | −0.06 | 0.88 |
| TLX: Tailless (homolog of drosophila) (NR2E1), cDNA driver | 107.9 | 1.6 | 1.57 | 4.5 | 0.4 | 0.38 | 217.6 | 1.5 | 1.51 | 78.4 | 1.2 | 1.25 | 13.5 | 0.5 | −2.079 | −0.32 | 0.48 |
| PPARa: Peroxisome proliferator activated receptor α (NR1C1), cDNA driver | 57.6 | 0.8 | 0.84 | 9.33 | 0.8 | 0.79 | 180.7 | 1.3 | 1.25 | 40.4 | 0.6 | 0.64 | 52.1 | 1.9 | – | 0.27 | 1.86 |
| SF-1: Steroidogenic Factor 1 (NR5A1, SF1), cDNA driver | 124.1 | 1.8 | 1.80 | 33.2 | 2.8 | 2.80 | 536.5 | 3.7 | 3.73 | 35.0 | 0.6 | 0.56 | 125.0 | 4.5 | – | 0.65 | 4.47 |
| B1 | 34.8 | 0.5 | 0.51 | 6.4 | 0.5 | 0.54 | 93.1 | 0.6 | 0.65 | 25.4 | 0.4 | 0.40 | 30.15 | 1.1 | – | 0.03 | 1.08 |
| B2 | 37.9 | 0.5 | 0.55 | 4.69 | 0.4 | 0.40 | 117.6 | 0.8 | 0.82 | 61.7 | 1.0 | 0.98 | 30.9 | 1.1 | – | 0.04 | 1.10 |
